According to patent US7659308B2, “Concentricolide and its derivatives, process for preparing them, pharmaceutical composition comprising the same and its use” (Kunming Institute of Botany, The Chinese Academy of Sciences, priority 2003, dated 2010):
In brackets after ≈: the same amount, converted by molar mass. Each block holds one compound with its values, some of them ahead of it.

Key:
Format in all cases: cell-based
[1] = test system: binding and fusion between HIV-1 and cells; assay: microbe, parasite or virus in culture; settings: C8166 + HIV-1 chronically infected H9 cells, 24 h, syncytia formation
Source text: When HIV infected cells were co-cultured with normal T lymphocyte cells, the exterior envelope glycoprotein gp120 expressed on infected cells was bound to the cellular CD4 receptor of the uninfected CD4^+ cells, following fusion of cells and formation of syncytia. Compounds target to this site would inhibit the syncytia formation. Thus, this method could be used to detect whether the compounds have effect on binding and fusion between virus and host cell. Concentricolide A in example 1 was diluted by five fold on 96-well microtiter plate, 3 repeated wells in each gradient, 100 μl per well. Negative control well free of compounds and T-20 positive control well were set up. Then, 50 μl of C8166 cells at logarithmic growth period (6×10^5/ml) and 50 μl of HIV-1 chronically infected H9 cells (2×10^5/ml) were added in each well. The plate was cultured in a humidified incubator at 37° C. and 5% CO2 for 24 h, and the syncytial formation was observed under microscope to deduce whether Concentricolide A blocks the fusion process of virus and cell .

HIV-1IIIB = assay: Cytopathic effect (CPE) inhibition assay on HIV-1 infected C8166 cells
Method: To 100 μl of a culture medium containing corresponding concentration of concentricolide A from example 1 were added C8166 cells (4×10^5/ml) and HIV-1IIIB at a multiplicity of infection (M.O.I) of 0.06. The final volume was 200 μl. AZT was used as positive drug control. The plates were incubated in a humidified incubator at 37° C. and 5% CO2. After 3 days of culture, the cytopathic effect was measured by counting the number of syncytia in each well under an inverted microscope. EC50 (50% Effective Concentration) was the compound concentration inhibiting 50% of syncytia formation. The cytopathic effect (CPE) inhibition %=(1-number of syncytiaexp/number of syncytiacontrol)×100.

[2] = Cytotoxicity on C8166 cells (MTT colorimetric assay); settings: human, read-out: CC50 (50% cytotoxic concentration)
Method: (§1) C8166 was one of the host cells for HIV-1. 100 μl of 4×10^5/ml cells were seeded on microtiter plate, 100 μl of various concentrations of concentricolide were added and incubated at 37° C. in a humidified atmosphere of 5% CO2 for 72 h. The cellular toxicity was assessed by MTT calorimetric assay. The plates were read on Bio-Tek ELx 800 ELISA reader at 595/630 nm (OD595/630 nm). 50% cytotoxic concentration (CC50) was calculated as follows: Cell viability %=(ODexp−ODblank)/(ODcontrol−ODblank)×100.

C8166 cells = assay: as above; settings: 72 h
Method: as §1

- EC50 ([1]; Human immunodeficiency virus 1, read-out: EC50, blockage of binding and fusion between HIV-1 and cells): 0.83 µg/mL
- EC50 (HIV-1IIIB; Human immunodeficiency virus 1, 72 h, C8166 cells, HIV-1IIIB M.O.I. 0.06, 3 days, syncytia count): 0.31 µg/mL (≈ 1.53 µM)
Compound: CC[C@@H]1OC(=O)c2c1ccc1ccoc21 [concentricolide A]
- selected index (S.I.) (HIV-1IIIB; against HIV-1 in vitro): 222
- CC50 at 72 h [2]: 76.7 µg/mL (≈ 379 µM)

- EC50, inhibition of cytopathic effect (CPE) of HIV-1 (HIV-1IIIB; C8166 cells, HIV-1IIIB M.O.I. 0.06, 3 days, syncytia count): 0.092 µg/mL
Compound: Cc1cn([C@H]2C[C@H](N=[N+]=[N-])[C@@H](CO)O2)c(=O)[nH]c1=O [AZT, 3P-azido-3P-deoxythymidine, reference compound]
- CC50 (50% cytotoxic concentration) (C8166 cells): 258.88 µg/mL (≈ 969 µM)

Compound: enfuvirtide
- EC50, blockage of fusion of HIV-1 infected cells ([1]; positive control): 0.00602 µg/mL
